In patent US7691382B2, “Antiviral polypeptides comprising tandem repeats of APOE 141-149 and variants thereof” (priority 2003, dated 2010):
Peptide text beside a SMILES is read from it.

Tested on: HSV1
Type: cell-based, Human herpes simplex virus type 1
Settings: for efficacy for reducing HSV1 infectivity (in words): Examples 2 and 3
Method: African Green Monkey Kidney (Vero) cells were maintained in Eagle's minimum essential medium with Earle's salt (EMEM) and supplemented with 10% foetal calf serum (heat-inactivated), 4 mM L-glutamine, and 1% (v/v) nonessential amino acids, plus penicillin and streptomycin (100 IU/mg and […], respectively) (maintenance medium referred to as 10% EMEM). The cells were incubated at 37° C. in a humidified atmosphere of air with 5% CO2.
On harvesting, monolayers were washed in phosphate-buffered saline (PBS), and dislodged by incubating with trypsin in PBS for 30 min, before inactivating trypsin by addition of an equal volume of 10% EMEM and centrifuging at 500 g (5 min, 4° C.). Cell pellets were resuspended in 10% EMEM, prior to cell counting and seeding of 24-well plates. For antiviral assays, medium containing only 0.5% FCS was used (referred to as 0.5% EMEM).
Three separate passages of HSV1 virus were prepared by infecting Vero cells, and preparing semi-pure suspensions of virus from tissue culture supernatant and cell lysates, before freezing aliquots of virus at −85° C. Viral infectivity was assessed by carrying out plaque assays on serial dilutions of thawed aliquots (expressed in pfu/ml).
Peptides were obtained in lyophilised form from a commercial supplier (AltaBioscience, University of Birmingham or Advanced Biomedical), and were produced at 5 micromole scale. N-terminals were protected by addition of an acetyl group, and the C-terminals were protected by addition of an amide group.
Small quantities of peptide were weighed in sterile Eppendorf tubes, before addition of sufficient 0.5% EMEM to produce a 1.5 mM stock solution, which was frozen at −20° C. in aliquots.
Vero cells were seeded at 125,000 cells per well in 10% EMEM, and were incubated overnight resulting in confluent monolayers. […] Virus stocks (p3) were thawed, and diluted in 0.5% EMEM such that there were around 100 pfu in 100 μl. Each 24-well plate was inoculated separately. Firstly 100 μl of virus stock was added to the peptide or control medium arranged on a 96-well plate. This was incubated at 37° C. for ten minutes before inoculation. Medium was removed from four wells of a 24-well plate containing confluent Vero, and the 200 μl inoculum added to the appropriate well. Once all wells were treated, the 24-well plate was incubated for a further 60-80 minutes. Finally the peptide-containing inoculum was removed, and 1 ml of 1% EMEM containing 1% carboxymethylcellulose was added to each well. Plates were incubated for a further 22 hours or in some experiments 40 hours, before removal of overlay, and addition of 10% formaldehyde in PBS. After a further one hour incubation, fixative was removed, monolayers washed several times with tap water, and stained with carbol fuchsin solubilised in water. After 30 minutes stain was removed, and plates washed several times with tap water, before being air dried. Plaques were counted using an Olympus IX70 Inverting Microscope, and antiviral effect expressed as a percentage of the control value for each peptide concentration. The IC50 was calculated from plots of inhibitory effect against peptide concentration.

CC(=O)N[C@@H](CC(C)C)C(=O)N[C@@H](CC(C)C)C(=O)N[C@@H](CCCNC(=N)N)C(=O)N[C@@H](CCCCN)C(=O)N[C@@H](CCCNC(=N)N)C(=O)N[C@@H](CC(C)C)C(=O)N[C@@H](CCCCN)C(=O)N[C@@H](CCCNC(=N)N)C(=O)N[C@@H](CC(C)C)C(=O)N[C@@H](CC(C)C)C(=O)N[C@@H](CC(C)C)C(=O)N[C@@H](CCCNC(=N)N)C(=O)N[C@@H](CCCCN)C(=O)N[C@@H](CCCNC(=N)N)C(=O)N[C@@H](CC(C)C)C(=O)N[C@@H](CCCCN)C(=O)N[C@@H](CCCNC(=N)N)C(=O)N[C@@H](CC(C)C)C(N)=O [MU 24] (Ac-LLRKRLKRLLLRKRLKRL-NH2)
IC50: 40 µM

CC(=O)N[C@@H](CC(C)C)C(=O)N[C@@H](CCCNC(=N)N)C(=O)N[C@@H](CCCNC(=N)N)C(=O)N[C@@H](CC(C)C)C(=O)N[C@@H](CCCNC(=N)N)C(=O)N[C@@H](CCCNC(=N)N)C(=O)N[C@@H](CCCNC(=N)N)C(=O)N[C@@H](CC(C)C)C(=O)N[C@@H](CC(C)C)C(=O)N[C@@H](CC(C)C)C(=O)N[C@@H](CCCNC(=N)N)C(=O)N[C@@H](CCCNC(=N)N)C(=O)N[C@@H](CC(C)C)C(=O)N[C@@H](CCCNC(=N)N)C(=O)N[C@@H](CCCNC(=N)N)C(=O)N[C@@H](CCCNC(=N)N)C(=O)N[C@@H](CC(C)C)C(=O)N[C@@H](CC(C)C)C(N)=O [MU 38] (Ac-LRRLRRRLLLRRLRRRLL-NH2)
IC50: > 30 µM

CC(=O)N[C@@H](CC(C)C)C(=O)N[C@@H](CCCCN)C(=O)N[C@@H](CCCCN)C(=O)N[C@@H](CC(C)C)C(=O)N[C@@H](CCCCN)C(=O)N[C@@H](CCCCN)C(=O)N[C@@H](CCCCN)C(=O)N[C@@H](CC(C)C)C(=O)N[C@@H](CC(C)C)C(=O)N[C@@H](CC(C)C)C(=O)N[C@@H](CCCCN)C(=O)N[C@@H](CCCCN)C(=O)N[C@@H](CC(C)C)C(=O)N[C@@H](CCCCN)C(=O)N[C@@H](CCCCN)C(=O)N[C@@H](CCCCN)C(=O)N[C@@H](CC(C)C)C(=O)N[C@@H](CC(C)C)C(N)=O [MU 39] (Ac-LKKLKKKLLLKKLKKKLL-NH2)
IC50: 30 µM

CC(=O)N[C@@H](CC(C)C)C(=O)N[C@@H](CCCNC(=N)N)C(=O)N[C@@H](CCCCN)C(=O)N[C@@H](CC(C)C)C(=O)N1CCC[C@H]1C(=O)N[C@@H](CCCCN)C(=O)N[C@@H](CCCNC(=N)N)C(=O)N[C@@H](CC(C)C)C(=O)N[C@@H](CC(C)C)C(=O)N[C@@H](CC(C)C)C(=O)N[C@@H](CCCNC(=N)N)C(=O)N[C@@H](CCCCN)C(=O)N[C@@H](CC(C)C)C(=O)N1CCC[C@H]1C(=O)N[C@@H](CCCCN)C(=O)N[C@@H](CCCNC(=N)N)C(=O)N[C@@H](CC(C)C)C(=O)N[C@@H](CC(C)C)C(N)=O [MU 44] (Ac-LRKLPKRLLLRKLPKRLL-NH2)
IC50: > 30 µM

CC(=O)N[C@@H](Cc1c[nH]c2ccccc12)C(=O)N[C@@H](CCCNC(=N)N)C(=O)N[C@@H](CCCCN)C(=O)N[C@@H](Cc1c[nH]c2ccccc12)C(=O)N[C@@H](CCCNC(=N)N)C(=O)N[C@@H](CCCCN)C(=O)N[C@@H](CCCNC(=N)N)C(=O)N[C@@H](Cc1c[nH]c2ccccc12)C(=O)N[C@@H](Cc1c[nH]c2ccccc12)C(=O)N[C@@H](CCCNC(=N)N)C(=O)N[C@@H](CCCCN)C(=O)N[C@@H](Cc1c[nH]c2ccccc12)C(=O)N[C@@H](CCCNC(=N)N)C(=O)N[C@@H](CCCCN)C(=O)N[C@@H](CCCNC(=N)N)C(=O)N[C@@H](Cc1c[nH]c2ccccc12)C(=O)N[C@@H](Cc1c[nH]c2ccccc12)C(N)=O [MU 58] (Ac-WRKWRKRWWRKWRKRWW-NH2)
IC50: 4.25 µM

CC(=O)N[C@@H](Cc1c[nH]c2ccccc12)C(=O)N[C@@H](CCCNC(=N)N)C(=O)N[C@@H](CCCCN)C(=O)N[C@@H](Cc1c[nH]c2ccccc12)C(=O)N[C@@H](CCCNC(=N)N)C(=O)N[C@@H](CCCCN)C(=O)N[C@@H](CCCNC(=N)N)C(=O)N[C@@H](Cc1c[nH]c2ccccc12)C(=O)N[C@@H](Cc1c[nH]c2ccccc12)C(=O)N[C@@H](Cc1ccccc1)C(=O)N[C@@H](CCCNC(=N)N)C(=O)N[C@@H](CCCCN)C(=O)N[C@@H](Cc1c[nH]c2ccccc12)C(=O)N[C@@H](CCCNC(=N)N)C(=O)N[C@@H](CCCCN)C(=O)N[C@@H](CCCNC(=N)N)C(=O)N[C@@H](Cc1c[nH]c2ccccc12)C(=O)N[C@@H](Cc1c[nH]c2ccccc12)C(N)=O [MU 60] (Ac-WRKWRKRWWFRKWRKRWW-NH2)
IC50: 4 µM

CC(=O)N[C@@H](Cc1c[nH]c2ccccc12)C(=O)N[C@@H](CCCNC(=N)N)C(=O)N[C@@H](CCCCN)C(=O)N[C@@H](Cc1c[nH]c2ccccc12)C(=O)N[C@@H](CCCNC(=N)N)C(=O)N[C@@H](CCCCN)C(=O)N[C@@H](CCCNC(=N)N)C(=O)N[C@@H](Cc1c[nH]c2ccccc12)C(=O)N[C@@H](Cc1ccccc1)C(=O)N[C@@H](Cc1ccccc1)C(=O)N[C@@H](CCCNC(=N)N)C(=O)N[C@@H](CCCCN)C(=O)N[C@@H](Cc1c[nH]c2ccccc12)C(=O)N[C@@H](CCCNC(=N)N)C(=O)N[C@@H](CCCCN)C(=O)N[C@@H](CCCNC(=N)N)C(=O)N[C@@H](Cc1ccccc1)C(=O)N[C@@H](Cc1ccccc1)C(N)=O [MU 61] (Ac-WRKWRKRWFFRKWRKRFF-NH2)
IC50: 4.75 µM

CC(=O)N[C@@H](Cc1c[nH]c2ccccc12)C(=O)N[C@@H](CCCNC(=N)N)C(=O)N[C@@H](CCCCN)C(=O)N[C@@H](CC(C)C)C(=O)N[C@@H](CCCNC(=N)N)C(=O)N[C@@H](CCCCN)C(=O)N[C@@H](CCCNC(=N)N)C(=O)N[C@@H](CC(C)C)C(=O)N[C@@H](CC(C)C)C(=O)N[C@@H](CC(C)C)C(=O)N[C@@H](CCCNC(=N)N)C(=O)N[C@@H](CCCCN)C(=O)N[C@@H](CC(C)C)C(=O)N[C@@H](CCCNC(=N)N)C(=O)N[C@@H](CCCCN)C(=O)N[C@@H](CCCNC(=N)N)C(=O)N[C@@H](CC(C)C)C(=O)N[C@@H](CC(C)C)C(N)=O [MU 115] (Ac-WRKLRKRLLLRKLRKRLL-NH2)
IC50: 17.5 µM

CC(=O)N[C@@H](Cc1c[nH]c2ccccc12)C(=O)N[C@@H](CCCNC(=N)N)C(=O)N[C@@H](CCCCN)C(=O)N[C@@H](Cc1c[nH]c2ccccc12)C(=O)N[C@@H](CCCNC(=N)N)C(=O)N[C@@H](CCCCN)C(=O)N[C@@H](Cc1ccccc1)C(=O)N[C@@H](Cc1ccccc1)C(=O)N[C@@H](Cc1ccccc1)C(=O)N[C@@H](CCCNC(=N)N)C(=O)N[C@@H](CCCCN)C(=O)N[C@@H](Cc1c[nH]c2ccccc12)C(=O)N[C@@H](CCCNC(=N)N)C(=O)N[C@@H](CCCCN)C(=O)N[C@@H](CCCNC(=N)N)C(=O)N[C@@H](Cc1c[nH]c2ccccc12)C(=O)N[C@@H](Cc1c[nH]c2ccccc12)C(N)=O [MU 116] (Ac-WRKWRKFFFRKWRKRWW-NH2)
IC50: 3.3 µM

CC(=O)N[C@@H](Cc1c[nH]c2ccccc12)C(=O)N[C@@H](CCCNC(=N)N)C(=O)N[C@@H](CCCCN)C(=O)N[C@@H](Cc1c[nH]c2ccccc12)C(=O)N[C@@H](CCCNC(=N)N)C(=O)N[C@@H](CCCCN)C(=O)N[C@@H](CCCNC(=N)N)C(=O)N[C@@H](Cc1c[nH]c2ccccc12)C(=O)N[C@@H](Cc1c[nH]c2ccccc12)C(=O)N[C@@H](Cc1ccccc1)C(=O)N[C@@H](CCCNC(=N)N)C(=O)N[C@@H](CCCCN)C(=O)N[C@@H](Cc1ccccc1)C(=O)N[C@@H](CCCNC(=N)N)C(=O)N[C@@H](CCCCN)C(=O)N[C@@H](CCCNC(=N)N)C(=O)N[C@@H](Cc1ccccc1)C(=O)N[C@@H](Cc1ccccc1)C(N)=O [MU 117] (Ac-WRKWRKRWWFRKFRKRFF-NH2)
IC50: 3.3 µM

ARKARKRAAARKARKRAA [GIN 39]
efficacy for reducing HSV1 infectivity (in words): abolished antiviral activity

RLLLRKLRKRLL [GIN 3]
efficacy for reducing HSV1 infectivity (in words): no, or poor, efficacy
Apparent IC50 (HSV1, Vero cells, Table 4 (Example 2)): No
